Measured values: patent publication US20260325533A1, “CDK INHIBITOR COMPOUNDS” (ALEKSIA THERAPEUTICS, INC., priority 2023, published 2026)
Read-outs that look alike come from different tables or passages of the source.

Columns and labels:
Format in all cases: biochemical
CDK2/CCNE1 = CDK2/CCNE1 (Homo sapiens, UniProt P24941); experiment: CDK2 homogeneous time-resolved fluorescence (HTRF) kinase assay; conditions: CDK2/CCNE
Procedure, shortened: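 CDK2/CCNE1 (3 nM) preincubated 20 min at 23 °C with compound, then reacted 60 min at 23 °C with 1 mM ATP and 50 nM ULight-4E-BP1 (Thr37/46) peptide. Stopped with EDTA, phospho-peptide detected by Eu-anti-phospho antibody (665 nm or 665/615 ratio). IC50 from 11-point half-log titrations typically starting at 10 μM.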

CDK1/CCNB1 = CDK1/CCNB1 (Homo sapiens, UniProt P06493); experiment: CDK1 homogeneous time-resolved fluorescence (HTRF) kinase assay; conditions: CDK1/CCNB
Procedure, shortened: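 Compounds, titrated 11 points in half-log steps typically from 10 μM, were incubated with enzyme for 20 min before ATP (1 mM) and ULight-labelled eIF4E-binding protein 1 peptide (50 nM) started a 60-min reaction at 23 °C. Phosphopeptide was detected by europium-antibody TR-FRET and IC50 values were derived.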

CDK4/CCND3 = CDK4/CCND3 (Homo sapiens, UniProt P11802); experiment: CDK4 homogeneous time-resolved fluorescence (HTRF) kinase assay; conditions: CDK4/CCND
Procedure, shortened: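 Inhibition of CDK4/CCND3 (1.5 nM) was measured at high ATP (1 mM) using 50 nM ULight-labelled 4E-BP1 Thr37/46 peptide; detection used 2 nM europium anti-phospho antibody after EDTA quench. IC50 values came from 11-point half-log titrations typically starting at 10 μM.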

CDK6/CCND1 = CDK6/CCND1 (Homo sapiens, UniProt Q00534); experiment: CDK6 homogeneous time-resolved fluorescence (HTRF) kinase assay; conditions: CDK6/CCND, 1 mM ATP
Procedure, shortened: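 1 nM enzyme, 1 mM ATP, 50 nM ULight-4E-BP1 (Thr37/46) peptide, 1% DMSO; 20 min compound preincubation, 60 min reaction, 23 °C. EDTA stop, 2 nM Eu-anti-phospho-4E-BP1 antibody 60 min. TR-FRET 665 nm (or 665/615 ratio); IC50 from 11-point half-log titration, top 10 μM.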

[1] = 25-250 nM, read-out: CDK2/CCNE IC50, 25-250 nM
[2] = >250 nM, read-out: CDK1/CCNB IC50 >250 nM
[3] = >250 nM, read-out: CDK4/CCND IC50, >250 nM
[4] = >250 nM, read-out: CDK6/CCND IC50, >250 nM
[5] = >250 nM, read-out: CDK2/CCNE IC50, >250 nM
[6] = <25 nM, read-out: CDK2/CCNE IC50, <25 nM
[7] = 25-250 nM, read-out: CDK4/CCND IC50, 25-250 nM
[8] = 25-250 nM, read-out: CDK6/CCND IC50, 25-250 nM

CDK6/CCND1, sequence (Q00534 whole entry): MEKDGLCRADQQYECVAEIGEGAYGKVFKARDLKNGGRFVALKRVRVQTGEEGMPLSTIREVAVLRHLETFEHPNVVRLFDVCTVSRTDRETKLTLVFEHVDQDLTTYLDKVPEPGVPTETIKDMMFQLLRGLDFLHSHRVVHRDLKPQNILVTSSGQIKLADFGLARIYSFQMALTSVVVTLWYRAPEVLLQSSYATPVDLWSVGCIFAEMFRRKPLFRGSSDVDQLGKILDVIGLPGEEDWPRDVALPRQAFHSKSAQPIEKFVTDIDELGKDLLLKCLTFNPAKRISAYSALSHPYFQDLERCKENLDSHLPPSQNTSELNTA
CDK6/CCND1, sequence (P24385 whole entry partner): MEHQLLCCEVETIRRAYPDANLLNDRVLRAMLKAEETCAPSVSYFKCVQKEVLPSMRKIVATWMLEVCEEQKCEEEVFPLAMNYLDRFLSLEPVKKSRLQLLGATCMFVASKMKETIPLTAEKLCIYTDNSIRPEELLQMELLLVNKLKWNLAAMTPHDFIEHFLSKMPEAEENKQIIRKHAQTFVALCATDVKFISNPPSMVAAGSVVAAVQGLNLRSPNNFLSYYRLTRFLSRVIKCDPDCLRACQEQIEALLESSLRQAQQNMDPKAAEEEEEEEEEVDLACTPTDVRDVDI
CDK1/CCNB1, sequence (P06493 whole entry): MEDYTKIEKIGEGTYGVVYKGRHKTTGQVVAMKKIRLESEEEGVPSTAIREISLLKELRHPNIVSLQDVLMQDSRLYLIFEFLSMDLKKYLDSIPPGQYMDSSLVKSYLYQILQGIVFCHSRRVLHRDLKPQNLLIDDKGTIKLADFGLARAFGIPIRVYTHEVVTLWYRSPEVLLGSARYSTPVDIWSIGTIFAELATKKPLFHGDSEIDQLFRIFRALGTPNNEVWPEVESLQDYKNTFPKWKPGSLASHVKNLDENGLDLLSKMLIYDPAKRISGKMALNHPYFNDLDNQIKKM
CDK1/CCNB1, sequence (P14635 whole entry partner): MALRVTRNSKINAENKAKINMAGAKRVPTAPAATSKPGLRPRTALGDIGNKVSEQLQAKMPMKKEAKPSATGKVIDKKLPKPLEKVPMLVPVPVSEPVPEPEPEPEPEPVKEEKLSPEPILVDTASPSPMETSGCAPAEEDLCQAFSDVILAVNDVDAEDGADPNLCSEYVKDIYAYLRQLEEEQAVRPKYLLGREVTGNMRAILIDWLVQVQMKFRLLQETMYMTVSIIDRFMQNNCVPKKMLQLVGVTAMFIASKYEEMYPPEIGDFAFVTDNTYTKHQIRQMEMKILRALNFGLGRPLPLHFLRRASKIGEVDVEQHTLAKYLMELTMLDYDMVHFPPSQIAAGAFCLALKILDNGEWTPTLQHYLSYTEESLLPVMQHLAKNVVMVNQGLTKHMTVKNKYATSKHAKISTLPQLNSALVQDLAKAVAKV
CDK4/CCND3, sequence (P11802 whole entry): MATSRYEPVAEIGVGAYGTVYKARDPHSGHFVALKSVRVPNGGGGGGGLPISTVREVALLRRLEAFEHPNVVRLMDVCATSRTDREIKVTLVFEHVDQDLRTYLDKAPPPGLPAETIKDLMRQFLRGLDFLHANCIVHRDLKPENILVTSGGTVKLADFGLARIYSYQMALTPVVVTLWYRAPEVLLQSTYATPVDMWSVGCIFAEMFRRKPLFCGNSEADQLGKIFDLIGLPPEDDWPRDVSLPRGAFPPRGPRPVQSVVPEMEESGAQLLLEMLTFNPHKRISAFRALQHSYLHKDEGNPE
CDK4/CCND3, sequence (P30281 whole entry partner): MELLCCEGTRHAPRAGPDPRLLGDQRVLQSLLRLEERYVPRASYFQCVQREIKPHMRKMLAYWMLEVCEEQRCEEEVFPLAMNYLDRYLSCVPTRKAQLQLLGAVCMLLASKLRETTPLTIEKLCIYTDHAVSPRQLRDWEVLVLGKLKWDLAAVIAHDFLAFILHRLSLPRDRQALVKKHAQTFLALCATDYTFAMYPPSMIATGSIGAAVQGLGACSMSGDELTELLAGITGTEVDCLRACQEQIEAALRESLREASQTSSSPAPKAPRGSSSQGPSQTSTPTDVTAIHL

| IC50 (CDK2/CCNE1; [1]) [nM] | IC50 (CDK1/CCNB1; [2]) [nM] | IC50 (CDK4/CCND3; [3]) [nM] | IC50 (CDK6/CCND1; [4]) [nM] | IC50 (CDK2/CCNE1; [5]) [nM] | IC50 (CDK2/CCNE1; [6]) [nM] | IC50 (CDK4/CCND3; [7]) [nM] | IC50 (CDK6/CCND1; [8]) [nM] | IC50 (CDK1/CCNB1; 25-250 nM, read-out: CDK1/CCNB IC50, 25-250 nM) [nM] | Structure (SMILES) |
| --- | --- | --- | --- | --- | --- | --- | --- | --- | --- |
| 25 to 250 | > 250 | > 250 | > 250 | – | – | – | – | – | CS(=O)(=O)c1ccc(Nc2cc3c(C#Cc4ccc5c(c4)OCO5)nccc3cn2)cc1 [Ex 857, 5-(benzo[d][1,3]dioxol-5-ylethynyl)-N-(4-(methylsulfonyl)phenyl)-2,6-naphthyridin-3-amine] |
| 25 to 250 | > 250 | > 250 | > 250 | – | – | – | – | – | CSc1ccc(C#Cc2nccc3cnc(Nc4ccc(S(C)(=O)=O)cc4)cc23)cc1 [Ex 858, N-(4-(methylsulfonyl)phenyl)-5-((4-(methylthio)phenyl)ethynyl)-2,6-naphthyridin-3-amine] |
| 25 to 250 | > 250 | > 250 | > 250 | – | – | – | – | – | Cn1cc2ccc(C#Cc3nccc4cnc(Nc5ccc(S(C)(=O)=O)cc5)cc34)cc2n1 [Ex 859, 5-((2-methyl-2H-indazol-6-yl)ethynyl)-N-(4-(methylsulfonyl)phenyl)-2,6-naphthyridin-3-amine] |
| – | > 250 | > 250 | > 250 | > 250 | – | – | – | – | CS(=O)(=O)c1ccc(Nc2cc3c(C#Cc4cc(F)c5cn[nH]c5c4)nccc3cn2)cc1 [Ex 860, 5-((4-fluoro-1H-indazol-6-yl)ethynyl)-N-(4-(methylsulfonyl)phenyl)-2,6-naphthyridin-3-amine] |
| 25 to 250 | > 250 | > 250 | > 250 | – | – | – | – | – | CS(=O)(=O)c1ccc(Nc2cc3c(C#Cc4ccc5c(O)ncnc5c4)nccc3cn2)cc1 [Ex 861, 7-((7-((4-(methylsulfonyl)phenyl)amino)-2,6-naphthyridin-1-yl)ethynyl)quinazolin-4-ol] |
| 25 to 250 | > 250 | > 250 | > 250 | – | – | – | – | – | CN1CCN(c2ccc(C#Cc3nccc4cnc(Nc5ccc(S(=O)(=O)Nc6ncccn6)cc5)cc34)cc2)CC1 [Ex 864, 4-((5-((4-(4-methylpiperazin-1-yl)phenyl)ethynyl)-2,6-naphthyridin-3-yl)amino)-N-(pyrimidin-2-yl)benzenesulfonamide] |
| 25 to 250 | > 250 | > 250 | > 250 | – | – | – | – | – | C[C@H]1CN(c2cc(Nc3cc4c(C#Cc5ccc(=O)[nH]n5)nccc4cn3)cnc2O)CCN1C [Ex 865, (S)-6-((7-((5-(3,4-dimethylpiperazin-1-yl)-6-hydroxypyridin-3-yl)amino)-2,6-naphthyridin-1-yl)ethynyl)pyridazin-3(2H)-one] |
| 25 to 250 | > 250 | > 250 | > 250 | – | – | – | – | – | O=c1ccc(C#Cc2nccc3cnc(Nc4cnc(O)c(N5CCN(CCO)CC5)c4)cc23)n[nH]1 [Ex 866, 6-((7-((6-hydroxy-5-(4-(2-hydroxyethyl)piperazin-1-yl)pyridin-3-yl)amino)-2,6-naphthyridin-1-yl)ethynyl)pyridazin-3(2H)-one] |
| – | > 250 | – | – | – | < 25 | 25 to 250 | 25 to 250 | – | Cc1c(-c2nccc3cnc(Nc4ccc(S(=O)(=O)Nc5nccn5C)cc4)cc23)ccc2c1cnn2CC(C)(C)O [Ex 867, 4-((5-(1-(2-hydroxy-2-methylpropyl)-4-methyl-1H-indazol-5-yl)-2,6-naphthyridin-3-yl)amino)-N-(1-methyl-1H-imidazol-2-yl)benzenesulfonamide] |
| – | > 250 | > 250 | > 250 | – | < 25 | – | – | – | Cc1c(-c2nccc3cnc(Nc4ccc(S(=O)(=O)Nc5nc(F)cc(F)n5)cc4)cc23)ccc2c1cnn2CC(C)(C)O [Ex 868, N-(4,6-difluoropyrimidin-2-yl)-4-((5-(1-(2-hydroxy-2-methylpropyl)-4-methyl-1H-indazol-5-yl)-2,6-naphthyridin-3-yl)amino)benzenesulfonamide] |
| 25 to 250 | > 250 | > 250 | > 250 | – | – | – | – | – | CCOc1ccc(C#Cc2nccc3cnc(Nc4ccc(S(C)(=O)=O)cc4)cc23)cn1 [Ex 869, 5-((6-ethoxypyridin-3-yl)ethynyl)-N-(4-(methylsulfonyl)phenyl)-2,6-naphthyridin-3-amine] |
| – | > 250 | > 250 | > 250 | > 250 | – | – | – | – | CS(=O)(=O)c1ccc(Nc2cc3c(C#Cc4ccc(C(F)(F)F)nc4)nccc3cn2)cc1 [Ex 870, N-(4-(methylsulfonyl)phenyl)-5-((6-(trifluoromethyl)pyridin-3-yl)ethynyl)-2,6-naphthyridin-3-amine] |
| 25 to 250 | > 250 | > 250 | > 250 | – | – | – | – | – | CS(=O)(=O)c1ccc(Nc2cc3c(C#Cc4c(F)cncc4F)nccc3cn2)cc1 [Ex 871, 5-((3,5-difluoropyridin-4-yl)ethynyl)-N-(4-(methylsulfonyl)phenyl)-2,6-naphthyridin-3-amine] |
| 25 to 250 | > 250 | > 250 | > 250 | – | – | – | – | – | CS(=O)(=O)c1ccc(Nc2cc3c(C#Cc4cc(F)ncc4F)nccc3cn2)cc1 [Ex 872, 5-((2,5-difluoropyridin-4-yl)ethynyl)-N-(4-(methylsulfonyl)phenyl)-2,6-naphthyridin-3-amine] |
| 25 to 250 | > 250 | > 250 | > 250 | – | – | – | – | – | CS(=O)(=O)c1ccc(Nc2cc3c(C#Cc4cncc(F)c4)nccc3cn2)cc1 [Ex 873, 5-((5-fluoropyridin-3-yl)ethynyl)-N-(4-(methylsulfonyl)phenyl)-2,6-naphthyridin-3-amine] |
| 25 to 250 | > 250 | > 250 | > 250 | – | – | – | – | – | CS(=O)(=O)c1ccc(Nc2cc3c(C#Cc4ccc(F)nc4)nccc3cn2)cc1 [Ex 874, 5-((6-fluoropyridin-3-yl)ethynyl)-N-(4-(methylsulfonyl)phenyl)-2,6-naphthyridin-3-amine] |
| – | > 250 | > 250 | > 250 | > 250 | – | – | – | – | CS(=O)(=O)c1ccc(Nc2cc3c(C#Cc4cc(F)c(F)c(F)c4)nccc3cn2)cc1 [Ex 875, N-(4-(methylsulfonyl)phenyl)-5-((3,4,5-trifluorophenyl)ethynyl)-2,6-naphthyridin-3-amine] |
| – | – | – | – | – | < 25 | 25 to 250 | 25 to 250 | 25 to 250 | CN1CCN(c2ccc(C#Cc3nccc4cnc(Nc5ccc(S(N)(=O)=O)cc5)cc34)cc2)CC1 [Ex 876, 4-((5-((4-(4-methylpiperazin-1-yl)phenyl)ethynyl)-2,6-naphthyridin-3-yl)amino)benzenesulfonamide] |
| 25 to 250 | > 250 | > 250 | > 250 | – | – | – | – | – | CC#Cc1nccc2cnc(Nc3ccc(S(=O)(=O)Nc4nccc(N5CCOCC5)n4)cc3)cc12 [Ex 878, N-(4-morpholinopyrimidin-2-yl)-4-((5-(prop-1-yn-1-yl)-2,6-naphthyridin-3-yl)amino)benzenesulfonamide] |
| 25 to 250 | > 250 | > 250 | > 250 | – | – | – | – | – | CC#Cc1nccc2cnc(Nc3ccc(S(=O)(=O)Nc4nccc(OC)n4)cc3)cc12 [Ex 879, N-(4-methoxypyrimidin-2-yl)-4-((5-(prop-1-yn-1-yl)-2,6-naphthyridin-3-yl)amino)benzenesulfonamide] |
| – | > 250 | > 250 | > 250 | – | < 25 | – | – | – | Cc1c(-c2nccc3cnc(Nc4ccc(S(=O)(=O)Nc5ncc(F)cn5)cc4)cc23)ccc2c1cnn2CC(C)(C)O [Ex 880, N-(5-fluoropyrimidin-2-yl)-4-((5-(1-(2-hydroxy-2-methylpropyl)-4-methyl-1H-indazol-5-yl)-2,6-naphthyridin-3-yl)amino)benzenesulfonamide] |
| 25 to 250 | > 250 | > 250 | > 250 | – | – | – | – | – | Cc1c(-c2nccc3cnc(Nc4ccc(S(=O)(=O)Nc5nccc(F)n5)cc4)cc23)ccc2c1cnn2CC(C)(C)O [Ex 881, N-(4-fluoropyrimidin-2-yl)-4-((5-(1-(2-hydroxy-2-methylpropyl)-4-methyl-1H-indazol-5-yl)-2,6-naphthyridin-3-yl)amino)benzenesulfonamide] |
| 25 to 250 | > 250 | > 250 | > 250 | – | – | – | – | – | COc1cncc(C#Cc2nccc3cnc(Nc4ccc(S(C)(=O)=O)cc4)cc23)c1 [Ex 882, 5-((5-methoxypyridin-3-yl)ethynyl)-N-(4-(methylsulfonyl)phenyl)-2,6-naphthyridin-3-amine] |
